# Measurements published in patent publication US7998950B2, “Antiviral compounds” (Gilead Sciences, Inc., priority 2008, dated 2011).
# Tested on: HIV-IIIb
# Test: Antiviral assay in MT-2 cells infected with HIV-IIIb
# Assay type: cell-based
# Settings: Human immunodeficiency virus 1, IIIB, MT2, 120 h, MT-2 cells infected with HIV-IIIb, m.o.i. 0.01, 10% FBS, 5 days at 37° C., CellTiter-Glo chemiluminescence; read-out: EC50 in MT-2 cells
row,Structure (SMILES),EC50
1,CNC(=O)c1c(O)c2ncc(Cc3ccc(F)cc3)c3c2n(c1=O)C=C(C(=O)N1CCOCC1)O3 [A-83],37 nM
2,O=C(NCCN1CCNCC1)c1c(O)c2ncc(Cc3ccc(F)cc3)c3c2n(c1=O)CCO3 [compound 18],20 nM
3,COCCNC(=O)c1c(O)c2ncc(Cc3ccc(F)cc3)c3c2n(c1=O)C=C(C(=O)NC(C)(C)CO)O3 [Example 127],5 nM
4,CNC(=O)c1c(O)c2ncc(Cc3ccc(F)cc3)c3c2n(c1=O)C=C(C(=O)NCC1(O)CC1)O3 [Example 133],7 nM
5,COCCNC(=O)c1c(O)c2ncc(Cc3ccc(F)cc3)c3c2n(c1=O)CC(F)(F)CN3 [A-10],4 nM
6,CNC(=O)c1c(O)c2ncc(Cc3ccc(F)cc3)c3c2n(c1=O)C[C@@H](C(=O)NCC(C)(C)C#N)O3 [Example 175],2.4 nM
7,CNC(=O)c1c(O)c2ncc(Cc3ccc(F)cc3)c3c2n(c1=O)C=C(C(=O)NCC(C)(C)O)O3 [Example 140],3.5 nM
8,CNC(=O)c1c(O)c2ncc(Cc3ccc(F)c(Cl)c3)c3c2n(c1=O)C[C@@H](C(=O)NC)O3 [Example 177],1.2 nM
9,CC(=O)N1CCn2c(=O)c(C(=O)NCCO)c(O)c3ncc(Cc4ccc(F)cc4)c1c32 [compound 43],982 nM
10,COCCNC(=O)c1c(O)c2ncc(Cc3ccc(F)cc3)c3c2n(c1=O)C=C(C(=O)NCCN1CCCC1)O3 [Example 109],37.5 nM
11,O=C(NCCCN1CCOCC1)c1c(O)c2ncc(Cc3ccc(F)cc3)c3c2n(c1=O)CC(F)(F)CN3 [Example 153],12 nM
12,COCC1Cn2c(=O)c(C(=O)NCCO)c(O)c3ncc(Cc4ccc(F)cc4)c(c32)O1 (stereo not shown) [A-31],1.5 nM
13,O=C(NCCN1CCOCC1)c1c(O)c2ncc(Cc3ccc(F)cc3)c3c2n(c1=O)CCO3 [compound 13],7 nM
14,CCN(CC)C(=O)C1=Cn2c(=O)c(C(=O)NC)c(O)c3ncc(Cc4ccc(F)cc4)c(c32)O1 [Example 103],10 nM
15,CNC(=O)c1c(O)c2ncc(Cc3ccc(F)cc3)c3c2n(c1=O)C=C(C(=O)NCC(C)(C)N(C)C)O3 [Example 119],2.4 nM
16,CC(C)(CO)NC(=O)C1=Cn2c(=O)c(C(=O)NC3CC3)c(O)c3ncc(Cc4ccc(F)cc4)c(c32)O1 [Example 128],7.1 nM

row,Structure (SMILES),EC50
1,CNC(=O)c1c(O)c2ncc(Cc3ccc(F)cc3)c3c2n(c1=O)C=C(C(=O)N1CCOCC1(C)C)O3 [Example 107],25 nM
2,N#CCCNC(=O)c1c(O)c2ncc(Cc3ccc(F)cc3)c3c2n(c1=O)CC(F)(F)CN3 [A-9],4 nM
3,CCNC(=O)C1=Cn2c(=O)c(C(=O)NCCOC)c(O)c3ncc(Cc4ccc(F)cc4)c(c32)O1 [Example 104],3 nM
4,O=C(NCC1(O)CC1)c1c(O)c2ncc(Cc3ccc(F)cc3)c3c2n(c1=O)CC(F)(F)CN3 [A-11],3.5 nM
5,CNC(=O)c1c(O)c2ncc(Cc3ccc(F)cc3)c3c2n(c1=O)C[C@@H](CN(C)C(=O)c1nnc(C)o1)O3 [Example 207],4.6 nM
6,CCNC(=O)c1c(O)c2ncc(Cc3ccc(F)cc3)c3c2n(c1=O)CC(F)(F)CN3 [A-12],3 nM
7,CNC(=O)c1c(O)c2ncc(Cc3ccc(F)cc3)c3c2n(c1=O)C[C@@H](C(=O)NCC(C)(C)O)O3 [Example 174],2.6 nM
8,O=C(NCCN1CCOCC1)c1c(O)c2ncc(Cc3ccc(F)cc3)c3c2n(c1=O)CCN3 [compound 35],5.5 nM
9,CNC(=O)c1c(O)c2ncc(Cc3ccc(F)cc3)c3c2n(c1=O)C=C(C(=O)NC(CO)CO)O3 [A-94],49 nM
10,CNC(=O)C1=Cn2c(=O)c(C(=O)NC)c(O)c3ncc(Cc4ccc(F)cc4)c(c32)O1 [A-82],8 nM
11,O=C(NCCN1CCNC1=O)c1c(O)c2ncc(Cc3ccc(F)cc3)c3c2n(c1=O)CCO3 [compound 14],5.5 nM
12,CNC(=O)c1c(O)c2ncc(Cc3ccc(F)cc3)c3c2n(c1=O)C=C(C(=O)NCC(C)(C)C#N)O3 [Example 134],2.5 nM
13,O=C(NC1CC1)c1c(O)c2ncc(Cc3ccc(F)cc3)c3c2n(c1=O)CCCN3 [compound 50],17 nM
14,CNC(=O)c1c(O)c2ncc(Cc3ccc(F)cc3)c3c2n(c1=O)C=C(C(=O)NC(C)(C)CN)O3 [Example 121],5.8 nM
15,CNC(=O)c1c(O)c2ncc(Cc3ccc(F)cc3)c3c2n(c1=O)C=C(C(=O)N1CCCCC1)O3 [Example 131],13.9 nM
16,O=C(NCCO)c1c(O)c2ncc(Cc3ccc(F)cc3)c3c2n(c1=O)CC(CO)O3 (stereo not shown) [A-26],16 nM

# Continued, values first:
row,EC50,Structure (SMILES)
1,45.6 nM,Cn1cnnc1CCNC(=O)c1c(O)c2ncc(Cc3ccc(F)cc3)c3c2n(c1=O)CC(F)(F)CN3 [Example 148]
2,35 nM,CNC(=O)c1c(O)c2ncc(Cc3ccc(F)cc3)c3c2n(c1=O)C=C(C(=O)NCC(C)(C)N)O3 [Example 123]
3,34 nM,O=C(NCCN1CCCC1)c1c(O)c2ncc(Cc3ccc(F)cc3)c3c2n(c1=O)CC(F)(F)CN3 [Example 156]
4,20 nM,Cc1cn2c(=O)c(C(=O)NCCO)c(O)c3ncc(Cc4ccc(F)cc4)c1c32 [compound 72]
5,18.5 nM,CNC(=O)c1c(O)c2ncc(Cc3ccc(F)cc3)c3c2n(c1=O)CC(F)(F)CN3C [Example 163]
6,12 nM,CNC(=O)c1c(O)c2ncc(Cc3ccc(F)cc3)c3c2n(c1=O)C[C@@H](Cn1ccnc1C)O3 [Example 203]
7,9.5 nM,O=C(NCCCN1CCCC1=O)c1c(O)c2ncc(Cc3ccc(F)cc3)c3c2n(c1=O)CCN3 [compound 34]
8,8.2 nM,C[C@@H]1CCCN1CCCNC(=O)c1c(O)c2ncc(Cc3ccc(F)cc3)c3c2n(c1=O)CC(F)(F)CN3 [Example 158]
9,7 nM,CC(C)(O)CNC(=O)c1c(O)c2ncc(Cc3ccc(F)cc3)c3c2n(c1=O)CC(F)(F)CN3 [A-14]
10,5.8 nM,CNC(=O)c1c(O)c2ncc(Cc3ccc(F)cc3)c3c2n(c1=O)CCN3 [compound 37]
11,5.3 nM,CNC(=O)c1c(O)c2ncc(Cc3ccc(F)cc3)c3c2n(c1=O)C=C(C(=O)NCCOC)O3 [Example 113]
12,4.6 nM,O=C(NCCO)c1c(O)c2ncc(Cc3ccc(F)cc3)c3c2n(c1=O)CCCO3 [compound 24]
13,4 nM,CNC(=O)c1c(O)c2ncc(Cc3ccc(F)cc3)c3c2n(c1=O)C=C(C(=O)NC1CC1)O3 [A-85]
14,3.3 nM,CNC(=O)c1c(O)c2ncc(Cc3ccc(F)cc3)c3c2n(c1=O)C=C(C(=O)NC(C)(C)CO)O3 [Example 126]
15,3.3 nM,COCCNC(=O)c1c(O)c2ncc(Cc3ccc(F)cc3)c3c2n(c1=O)CCN3 [compound 33]
16,1.7 nM,CNC(=O)c1c(O)c2ncc(Cc3ccc(F)cc3)c3c2n(c1=O)C[C@@H](CO)O3 [A-67]
17,1.5 nM,O=C(NCCO)c1c(O)c2ncc(Cc3ccc(F)cc3)c3c2n(c1=O)CCC3 [compound 65]
18,0.1 nM,CNC(=O)c1c(O)c2ncc(Cc3ccc(F)cc3)c3c2n(c1=O)C[C@@H](CN(C)S(C)(=O)=O)O3 [Example 206]

# Same assay, conditions: Human immunodeficiency virus 1, IIIB, MT2, 120 h, read-out: EC50 in MT-2 cells (nM)
row,Structure (SMILES),EC50
1,CNC(=O)c1c(O)c2ncc(Cc3ccc(F)cc3)c3c2n(c1=O)C[C@@H](CN(C)S(=O)(=O)N(C)C)O3 [Example 210],5 nM
2,CNC(=O)c1c(O)c2ncc(Cc3ccc(F)cc3)c3c2n(c1=O)C=C(c1nnc(C)o1)O3 [Example 130],4.6 nM
3,CNC(=O)c1c(O)c2ncc(Cc3ccc(F)cc3)c3c2n(c1=O)C=C(C(=O)N(C)C)O3 [A-81],10.5 nM
4,CNC(=O)c1c(O)c2ncc(Cc3ccc(F)cc3)c3c2n(c1=O)C=C(COC)O3 [Example 137],5 nM

# Same assay, conditions: MT-2 cells infected with HIV-IIIb, m.o.i. 0.01, 10% FBS, 5 days at 37° C., CellTiter-Glo chemiluminescence; read-out: EC50 in MT-2 cells
row,EC50,Structure (SMILES)
1,7.1 nM,CNC(=O)c1c(O)c2ncc(Cc3ccc(F)cc3)c3c2n(c1=O)CC(CO)(CO)O3 [A-109]
